Laboratory results reported in publication PMC11237073, “Bisphenol S causes excessive estrogen synthesis by activating FSHR and the downstream cAMP/PKA signaling pathway” (Communications Biology, 2024).

Target: T1, follicle stimulating hormone receptor (FSHR) (Homo sapiens, UniProt P23945)
T1 sequence (P23945 18-695): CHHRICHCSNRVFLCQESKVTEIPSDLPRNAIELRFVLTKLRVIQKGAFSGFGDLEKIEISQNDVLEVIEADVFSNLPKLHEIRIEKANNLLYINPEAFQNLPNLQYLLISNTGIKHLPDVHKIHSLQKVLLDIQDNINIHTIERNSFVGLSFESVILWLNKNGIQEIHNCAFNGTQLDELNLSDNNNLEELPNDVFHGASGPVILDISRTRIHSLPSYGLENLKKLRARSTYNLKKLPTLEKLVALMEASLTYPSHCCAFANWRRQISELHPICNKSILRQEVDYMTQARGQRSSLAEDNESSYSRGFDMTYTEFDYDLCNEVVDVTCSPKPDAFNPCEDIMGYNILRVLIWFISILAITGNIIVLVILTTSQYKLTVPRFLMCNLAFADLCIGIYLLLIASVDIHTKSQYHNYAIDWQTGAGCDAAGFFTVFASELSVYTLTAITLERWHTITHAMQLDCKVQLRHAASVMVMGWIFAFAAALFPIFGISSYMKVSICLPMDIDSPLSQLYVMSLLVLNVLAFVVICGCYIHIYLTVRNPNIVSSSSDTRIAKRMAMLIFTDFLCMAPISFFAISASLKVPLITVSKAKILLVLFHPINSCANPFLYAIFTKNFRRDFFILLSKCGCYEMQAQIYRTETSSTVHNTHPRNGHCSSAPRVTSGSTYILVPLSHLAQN
Test: isothermal titration calorimetry (Nano ITC, […] BPS into […] FSHR, sequential two-site model)
Details: read-out: Value for specific binding site

O=S(=O)(c1ccc(O)cc1)c1ccc(O)cc1 [BPS, bisphenol S]
Kd: 183 µM
